# Assay results published in US9051325B2, “Bicyclic [5,6] imidazo pyrimodone compounds for use in the treatment of diseases or conditions mediated by Lp-PLA2” (GlaxoSmithKline Intellectual Property Development Limited, priority 2013, dated 2015).
# Where two headings read alike, the source gives them in different places.
# Legend:
# [1] = target: T1, recombinant human Lp-PLA2 (Homo sapiens, UniProt Q13093); experiment: Recombinant human Lp-PLA2 assay (rhLp-PLA2, PED6 assay); type: biochemical
# T1 sequence (Q13093 22-441): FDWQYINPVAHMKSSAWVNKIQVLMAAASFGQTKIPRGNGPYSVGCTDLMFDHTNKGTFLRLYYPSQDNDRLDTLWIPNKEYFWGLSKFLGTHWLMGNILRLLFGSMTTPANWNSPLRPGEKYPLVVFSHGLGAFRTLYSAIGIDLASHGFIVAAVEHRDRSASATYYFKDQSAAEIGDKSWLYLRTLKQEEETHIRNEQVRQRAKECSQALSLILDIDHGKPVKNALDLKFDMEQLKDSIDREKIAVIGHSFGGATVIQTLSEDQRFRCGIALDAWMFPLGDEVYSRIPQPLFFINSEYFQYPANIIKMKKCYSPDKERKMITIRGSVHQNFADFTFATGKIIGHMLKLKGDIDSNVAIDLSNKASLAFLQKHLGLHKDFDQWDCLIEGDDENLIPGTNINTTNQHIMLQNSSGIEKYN
# Method in brief: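 Compounds were preincubated 30 min with 4 nM […] rhLp-PLA2 in 50 mM HEPES pH 7.4, 150 mM NaCl, 1 mM CHAPS, then PED6 substrate […] was added for 20 min at room temperature in the dark. Fluorescence was read at ex 480/em 540, and pIC50 was fitted from 1:3 serial dilutions.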
# Lp-PLA2 in human plasma = target: T2, Lp-PLA2 in human plasma (Homo sapiens, UniProt Q13093); experiment: Lp-PLA2 human plasma assay (Thio-PAF assay); type: biochemical; conditions: pooled human plasma; lower bounds; read-out: pIC50 values in the thio-PAF assay (converted)
# T2 construct: from tissue; host or cells: pooled human plasma
# T2 sequence (Q13093 22-441): T1 sequence (Q13093 22-441)
# Method in brief: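 Pooled human plasma preincubated 30 min with compounds, then given 2-thio-PAF substrate with CPM and NEM in 50 mM HEPES pH 7.4, 150 mM NaCl, 1 mM CHAPS. Reaction quenched after 2 min with TFA and read by fluorescence (ex 380/em 485) after 40 min at room temperature; pIC50 from curve fit.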
# [2] = lower bounds, read-out: pIC50 values in the PED6 assay (converted)
# [3] = read-out: rhLp-PLA2 (PED6 assay) (pIC50) (converted)
structure (smiles),measurement,setting,value
"C[C@H]1Cn2c(cc(OCc3ccc(Oc4cncc(C(F)(F)F)c4)c(C#N)c3)nc2=O)N1C [Example E55, (S)-5-(((1,2-dimethyl-5-oxo-1,2,3,5-tetrahydroimidazo[1,2-c]pyrimidin-7-yl)oxy)methyl)-2-((5-(trifluoromethyl)pyridin-3-yl)oxy)benzonitrile]",IC50,[1]; [2],≤ 1 nM
same,IC50,Lp-PLA2 in human plasma,≤ 100 nM
"C[C@H]1Cn2c(cc(OCc3cc(F)c(Oc4ccc(C(F)(F)F)nc4)c(F)c3)nc2=O)N1C [Example E73, (S)-7-((3,5-difluoro-4-((6-(trifluoromethyl)pyridin-3-yl)oxy)benzyl)oxy)-1,2-dimethyl-1-2,3-dihydroimidazo[1,2-c]pyrimidin-5(1H)-one]",IC50,[1]; [2],≤ 1 nM
same,IC50,Lp-PLA2 in human plasma,≤ 100 nM
"CN1c2cc(OCc3cccc(F)c3F)nc(=O)n2CC1(C)C [Example E103, 7-((2,3-difluorobenzyl)oxy)-1,2,2-trimethyl-2,3-dihydroimidazo[1,2-c]pyrimidin-5(1H)-one]",IC50,[1]; [2],≤ 10 nM
same,IC50,Lp-PLA2 in human plasma,≤ 100 nM
"[2H]C([2H])(Oc1cc2n(c(=O)n1)CC(C)(C)N2C(C)C)c1cccc(F)c1F [Example E105, 7-(dideutero(2,3-difluorobenzyl)oxy)-1-isopropyl-2,2-dimethyl-2,3-dihydroimidazo-[1,2-c]pyrimidin-5(1H)-one]",IC50,[1]; [2],≤ 1 nM
same,IC50,[1]; [3],0.631 nM
same,IC50,Lp-PLA2 in human plasma,≤ 100 nM
"CN1c2cc(OCc3ccc(F)c(F)c3)nc(=O)n2CC1(C)C [Example E122, 7-((3,4-difluorobenzyl)oxy)-1,2,2-trimethyl-2-dihydroimidazo[1,2-c]pyrimidin-5(1H)-one]",IC50,[1]; [2],≤ 1 nM
same,IC50,Lp-PLA2 in human plasma,≤ 100 nM
"CN1c2cc(OCCc3cccs3)nc(=O)n2CC1(C)C [Example E8, 1,2,2-trimethyl-7-(2-(thiophen-2-yl)ethoxy)-2,3-dihydroimidazo[1,2-c]pyrimidin-5(1H)-one]",IC50,[1]; [2],≤ 10 nM
same,IC50,Lp-PLA2 in human plasma,≤ 100 nM
"[2H]C([2H])(Oc1cc2n(c(=O)n1)CC(C)(C)N2C)c1cccc(F)c1F [Example E67, 7-(dideutero(2,3-difluorobenzyl)oxy)-1,2,2-trimethyl-2,3-dihydroimidazo[1,2-c]pyrimidin-5(1H)-one]",IC50,[1]; [2],≤ 10 nM
same,IC50,Lp-PLA2 in human plasma,≤ 100 nM
"CN1c2cc(OCc3cc(F)c(Oc4cnc(C(F)(F)F)nc4)c(F)c3)nc(=O)n2CC1(C)C [Example E95, 7-((3,5-difluoro-4-((2-(trifluoromethyl)pyrimidin-5-yl)oxy)benzyl)oxy)-1,2,2-trimet-hyl-2,3-dihydroimidazo[1,2-c]pyrimidin-5(1H)-one]",IC50,[1]; [2],≤ 1 nM
same,IC50,[1]; [3],0.0794 nM
same,IC50,Lp-PLA2 in human plasma,≤ 100 nM
"C[C@@H]1Cn2c(cc(OCc3ccc(F)c(C#N)c3)nc2=O)N1C [Example E53, (R)-5-(((1,2-dimethyl-5-oxo-1,2,3,5-tetrahydroimidazo[1,2-c]pyrimidin-7-yl)oxy)methyl)-2-fluorobenzonitrile]",IC50,[1]; [2],≤ 10 nM
same,IC50,Lp-PLA2 in human plasma,≤ 100 nM
"CN1c2cc(OCc3cc(F)c(Oc4cncc(Cl)c4)c(F)c3)nc(=O)n2CC1(C)C [Example E113, 7-((4-((5-chloropyridin-3-yl)oxy)-3,5-difluorobenzyl)oxy)-1,2,2-trimethyl-2,3-dihydroimidazo[1,2-c]pyrimidin-5(1H)-one]",IC50,[1]; [2],≤ 1 nM
same,IC50,Lp-PLA2 in human plasma,≤ 100 nM
"C[C@H]1Cn2c(cc(OCc3cc(F)c(Oc4ccnc(C(F)(F)F)c4)c(F)c3)nc2=O)N1C [Example E58, (S)-7-((3,5-difluoro-4-((2-(trifluoromethyl)pyridin-4-yl)oxy)benzyl)oxy)-1,2-dimethyl-2,3-dihydroimidazo[1,2-c]pyrimidin-5(1H)-one]",IC50,[1]; [2],≤ 1 nM
same,IC50,[1]; [3],0.0631 nM
same,IC50,Lp-PLA2 in human plasma,≤ 100 nM
"[2H]C([2H])(Oc1cc2n(c(=O)n1)CC(C)(C)N2CC)c1cccc(F)c1F [Example E102, 7-(dideutero(2,3-difluorobenzyl)oxy)-1-ethyl-2,2-dimethyl-2,3-dihydroimidazo[1,2-c]pyrimidin-5(1H)-one]",IC50,[1]; [2],≤ 10 nM
same,IC50,Lp-PLA2 in human plasma,≤ 100 nM
"C[C@H]1Cn2c(cc(OCc3cc(F)c(F)c(F)c3)nc2=O)N1 [Example E49, (S)-2-methyl-7-((3,4,5-trifluorobenzyl)oxy)-2,3-dihydroimidazo[1,2-c]pyrimidin-5(1H)-one]",IC50,[1]; [2],≤ 10 nM
same,IC50,Lp-PLA2 in human plasma,≤ 100 nM
"C[C@H]1Cn2c(cc(OCc3ccc(Oc4cncc(Cl)c4)c(F)c3)nc2=O)N1C [Example E23, (S)-7-((4-((5-chloropyridin-3-yl)oxy)-3-fluorobenzyl)oxy)-1,2-dimethyl-2,3-dihydroimidazo[1,2-c]pyrimidin-5(1H)-one]",IC50,[1]; [2],≤ 1 nM
same,IC50,[1]; [3],0.158 nM
same,IC50,Lp-PLA2 in human plasma,≤ 100 nM
"CN1c2cc(OCc3cc(F)c(Oc4cncc(C(F)(F)F)c4)c(F)c3)nc(=O)n2CC1(C)C [Example E61, 7-((3,5-difluoro-4-((5-(trifluoromethyl)pyridin-3-yl)oxy)benzyl)oxy)-1,2,2-trimethyl-2,3-dihydroimidazo[1,2-c]pyrimidin-5(1H)-one]",IC50,[1]; [2],≤ 1 nM
same,IC50,[1]; [3],0.126 nM
same,IC50,Lp-PLA2 in human plasma,≤ 100 nM
"CC1(C)Cn2c(cc(OCc3ccc(Oc4cncc(Cl)c4)c(F)c3)nc2=O)N1 [Example E90, 7-((4-((5-chloropyridin-3-yl)oxy)-3-fluorobenzyl)oxy)-2,2-dimethyl-2,3-dihydroimidazo[1,2-c]pyrimidin-5(1H)-one]",IC50,[1]; [2],≤ 1 nM
same,IC50,Lp-PLA2 in human plasma,≤ 100 nM
"C[C@H]1Cn2c(cc(OCc3ccc(F)c(F)c3)nc2=O)N1C [Example E7, (S)-7-((3,4-difluorobenzyl)oxy)-1,2-dimethyl-2,3-dihydroimidazo[1,2-c]pyrimidin-5(1H)-one]",IC50,[1]; [2],≤ 10 nM
same,IC50,Lp-PLA2 in human plasma,≤ 100 nM
"CN1c2cc(OCc3cccc(C#N)c3)nc(=O)n2CC1(C)C [Example E124, 3-(((1,2,2-trimethyl-5-oxo-1,2,3,5-tetrahydroimidazo[1,2-c]pyrimidin-7-yl)oxy)methyl)benzonitrile]",IC50,[1]; [2],≤ 1 nM
same,IC50,Lp-PLA2 in human plasma,≤ 100 nM
"C[C@H]1Cn2c(cc(OCc3cc(F)c(Oc4ccc(C(F)(F)F)nc4)c(F)c3)nc2=O)N1 [Example E16, (S)-7-((3,5-difluoro-4-((6-(trifluoromethyl)pyridin-3-yl)oxy)benzyl)oxy)-2-methyl-2,3-dihydroimidazo[1,2-c]pyrimidin-5(1H)-one]",IC50,[1]; [2],≤ 1 nM
same,IC50,Lp-PLA2 in human plasma,≤ 100 nM
"CN1c2cc(OCc3ccc(Oc4ccnc(C(F)(F)F)c4)c(F)c3)nc(=O)n2CC1(C)C [Example E59, 7-((3-fluoro-4-((2-(trifluoromethyl)pyridin-4-yl)oxy)benzyl)oxy)-1,2,2-trimethyl-2,3-dihydroimidazo[1,2-c]pyrimidin-5(1H)-one]",IC50,[1]; [2],≤ 1 nM
same,IC50,[1]; [3],0.0398 nM
same,IC50,Lp-PLA2 in human plasma,≤ 100 nM
"C[C@H]1Cn2c(cc(OCc3ccc(Oc4cnc(C(F)(F)F)nc4)c(F)c3)nc2=O)N1C [Example E40, (S)-7-((3-fluoro-4-((2-(trifluoromethyl)pyrimidin-5-yl)oxy)benzyl)oxy)-1,2-dimethyl 2,3-dihydroimidazo[1,2-c]pyrimidin-5(1H)-one]",IC50,[1]; [2],≤ 10 nM
same,IC50,Lp-PLA2 in human plasma,≤ 100 nM
"CC(C)N1c2cc(OCc3cccc(F)c3F)nc(=O)n2CC1(C)C [Example E46, 7-((2,3-difluorobenzyl)oxy)-1-isopropyl-2,2-dimethyl-2,3-dihydroimidazo[1,2-c]pyrimidin5(1H)-one]",IC50,[1]; [2],≤ 10 nM
same,IC50,[1]; [3],3.98 nM
same,IC50,Lp-PLA2 in human plasma,≤ 100 nM
"[2H]C([2H])(Oc1cc2n(c(=O)n1)CC(C)(C)N2C([2H])([2H])[2H])c1cccc(F)c1F [Example E15, 7-(dideutero(2,3-difluorobenzyl)oxy)-1-trideuteromethyl-2,2-dimethyl-2,3-dihydroimidazo[1,2-c]pyrimidin-5(1H)-one]",IC50,[1]; [2],≤ 10 nM
same,IC50,Lp-PLA2 in human plasma,≤ 100 nM
"CCN1c2cc(OCc3cc(F)cc(F)c3)nc(=O)n2CC1(C)C [Example E129, 7-((3,5-difluorobenzyl)oxy)-1-ethyl-2,2-dimethyl-2,3-dihydroimidazo[1,2-c]pyrimidin-5(1H)-one]",IC50,[1]; [2],≤ 10 nM
same,IC50,Lp-PLA2 in human plasma,≤ 100 nM
"CC1(C)Cn2c(cc(OCc3ccc(Oc4ccnc(C(F)(F)F)c4)c(F)c3)nc2=O)N1 [Example E38, 7-((3-fluoro-4-((2-(trifluoromethyl)pyridin-4-yl)oxy)benzyl)oxy)-2,2-dimethyl-2,3-dihydroimidazo[1,2-c]pyrimidin-5(1H)-one]",IC50,[1]; [2],≤ 1 nM
same,IC50,Lp-PLA2 in human plasma,≤ 100 nM
"CC1(C)Cn2c(cc(OCc3ccc(Oc4ccc(F)nc4)c(F)c3)nc2=O)N1 [Example E69, 7-((3-fluoro-4-((6-fluoropyridin-3-yl)oxy)benzyl)oxy)-2,2-dimethyl-2,3-dihydroimidazo[1,2-c]pyrimidin-5(1H)-one]",IC50,[1]; [2],≤ 1 nM
same,IC50,Lp-PLA2 in human plasma,≤ 100 nM
"CC1(C)Cn2c(cc(OCc3cc(F)c(Oc4ccc(C(F)(F)F)nc4)c(F)c3)nc2=O)N1 [Example E39, 7-((3,5-difluoro-4-((6-(trifluoromethyl)pyridin-3-yl)oxy)benzyl)oxy)-2,2-dimethyl-2,3-dihydroimidazo[1,2-c]pyrimidin-5(1H)-one]",IC50,[1]; [2],≤ 1 nM
same,IC50,Lp-PLA2 in human plasma,≤ 100 nM
